Counter-ions that a name gives are not always drawn. Like-named read-outs stand apart in the source and are kept apart here.
What was measured:
[1] = Genotoxicity profile; data extracted from Kirkland et al. 2008; cited from earlier work
Salmonella = conditions: cited from earlier work
[2] = cited from earlier work
[3] = system: Bscl2-GFP and Srxn1-GFP mES reporter cells
[4] = system: mouse ES cell lines containing a DsRed fluorescent reporter; conditions: cited from earlier work
[5] = Genotoxicity profile, data extracted from Kirkland et al. 2008
[6] = from which GFP reporter is induced

Compound | In vitro genotoxicity [1] | Ames test (Salmonella; [5]) | mES DsRed reporters ([4]; Hendriks et al. 2011) | Bscl2-GFP/Srxn1-GFP GFP Induction [3] | other results
Oc1cccc(O)c1 [1,3-Dihydroxybenzene (Resorcinol), 1,3-Dihydroxybenzene] | Pos. | Neg. |  |  | In vivo genotoxicity [2, 5]: Neg.; Bscl2-GFP/Srxn1-GFP Prim. toxic properties [3]: Equivocal
Oc1ccc(Cl)cc1Cl [2,4-dichlorophenol] |  |  | Pos. | Pos. (key: Pos.: considered positive when exposure to at least two different concentrations of a compound resulted in >1.5 fold induction of GFP expression) | Ames test (Salmonella): Neg.; In vivo genotoxicity ([2]; in vivo): Weak Pos.; Bscl2-GFP/Srxn1-GFP Prim. toxic properties [3]: Pro-oxidant
CCCCCC(O)C=CC=O (stereo not drawn) [4-Hydroxy-2-nonenal] | Pos. | Neg. |  |  | In vivo genotoxicity [2, 5]: Neg.; Bscl2-GFP/Srxn1-GFP Prim. toxic properties [3]: Pro-oxidant
O=[N+]([O-])c1cc[n+]([O-])c2ccccc12 [4-Nitroquinelone-1-oxide] | Pos. |  |  | Pos. (considered positive when exposure to at least two different concentrations of a compound resulted in >1.5 fold induction of GFP expression) | In vivo genotoxicity [2, 5]: Pos.; Bscl2-GFP/Srxn1-GFP Prim. toxic properties [3, 6]: Genotoxin
C[N+](C)(C)CCCl.[Cl-] [(2-chloroethyl)trimethyl-ammonium chloride] |  |  |  | Neg. | Ames test (Salmonella): Neg.; mES DsRed reporters [4]: Neg.
Nc1nc[nH]n1 [Amitrole] | Neg. | Neg. | Neg. | Neg. | In vivo genotoxicity [2, 5]: Neg.
OCc1ccccc1 [Benzyl alcohol] | Weak Pos. | Neg. | Neg. | Neg. | 
CC[C@@]1(O)C(=O)OCc2c1cc1n(c2=O)Cc2cc3ccccc3nc2-1 [Camptothecin] | Pos. | Neg. |  | Pos. (considered positive when exposure to at least two different concentrations of a compound resulted in >1.5 fold induction of GFP expression) | In vivo genotoxicity [2, 5]: Neg.; Bscl2-GFP/Srxn1-GFP Prim. toxic properties [3, 6]: Genotoxin
COc1cc(/C=C/C(=O)CC(=O)/C=C/c2ccc(O)c(OC)c2)ccc1O [Curcumln] | Pos. | Neg. | Neg. | Neg. | 
O=C1CCCCC1 [Cyclohexanone] | Neg. | Neg. | Neg. | Neg. | 
Nc1ccn([C@@H]2O[C@H](CO)[C@@H](O)[C@@H]2O)c(=O)n1 [Cytarabine] |  |  |  |  | Ames test (Salmonella): Neg.; Bscl2-GFP/Srxn1-GFP Prim. toxic properties [3]: Genotoxin
C=C(C)[C@H]1CC=C(C)CC1 [D-limonene] |  |  | Neg. | Neg. | 
OCCNCCO [Diethanolamine] | Neg. | Neg. | Neg. | Neg. | In vivo genotoxicity [2, 5]: Neg.
CC[C@H]1OC(=O)[C@H](C)[C@@H](O[C@H]2C[C@@](C)(OC)[C@@H](O)[C@H](C)O2)[C@H](C)[C@@H](O[C@@H]2O[C@H](C)C[C@H](N(C)C)[C@H]2O)[C@](C)(O)C[C@@H](C)C(=O)[C@H](C)[C@@H](O)[C@]1(C)O [Erythromycin stearate] |  | Neg. |  | Neg. | 
CCc1cc(C(N)=S)ccn1 [Ethionamide] | Weak Pos. | Neg. | Neg. | Neg. | 
C=CC(=O)OCC [Ethyl acrylate] |  |  | Neg. | Neg. | Ames test (Salmonella): Neg.; In vivo genotoxicity ([2]; in vivo): Weak Pos.

Compound | In vitro genotoxicity [1] | Ames test (Salmonella; [5]) | mES DsRed reporters ([4]; Hendriks et al. 2011) | Bscl2-GFP/Srxn1-GFP GFP Induction [3] | other results
C=CCc1ccc(O)c(OC)c1 [Eugenol] |  | Neg. |  | Neg. | In vivo genotoxicity ([2]; in vivo): Equivocal; mES DsRed reporters [4]: Neg.
CN1CC[C@H](c2c(O)cc(O)c3c(=O)cc(-c4ccccc4Cl)oc23)[C@H](O)C1 [Flavopiridol] |  |  |  | Neg. | 
CN(C)C(=O)Nc1cccc(C(F)(F)F)c1 [Fluometron] | Neg. | Neg. | Neg. | Neg. | 
CC(C)C=O [Isobutyraldehyde] |  |  |  | Neg. | mES DsRed reporters [4]: Neg.
COC(N)=O [Methyl carbamate] | Neg. |  |  |  | In vivo genotoxicity [2, 5]: Neg.
NC(=S)N(C1CCCCC1)C1CCCCC1 [N,N-dicyclohexyl thiourea] | Neg. | Neg. | Neg. | Neg. | 
[H]/N=C(/N)N/C(=N/[H])NCCc1ccccc1 [Phenformin HCl] |  |  | Neg. | Neg. | 
O=C1NS(=O)(=O)c2ccccc21.[Na] [Sodium saccharin] |  |  |  | Neg. | Ames test (Salmonella): Neg.; In vivo genotoxicity ([2]; in vivo): Neg.; mES DsRed reporters [4]: Neg.
Cc1noc(NS(=O)(=O)c2ccc(N)cc2)c1C [Sulfisoxazole] |  | Neg. | Neg. | Pos. (key: Pos.: considered positive when exposure to at least two different concentrations of a compound resulted in >1.5 fold induction of GFP expression) | Bscl2-GFP/Srxn1-GFP Prim. toxic properties [3]: Pro-oxidant
CC(=O)O[C@H]1C(=O)[C@@]2(C)[C@H]([C@H](OC(=O)c3ccccc3)[C@]3(O)C[C@H](OC(=O)[C@H](O)[C@@H](NC(=O)c4ccccc4)c4ccccc4)C(C)=C1C3(C)C)[C@]1(OC(C)=O)CO[C@@H]1C[C@@H]2O [Taxol] | Pos. | Neg. |  |  | In vivo genotoxicity [2, 5]: Pos.; Bscl2-GFP/Srxn1-GFP Prim. toxic properties [3]: Genotoxin
CC(C)(C)OO [Tert-butyl hydroperoxide] |  |  |  | Pos. (key: Pos.: considered positive when exposure to at least two different concentrations of a compound resulted in >1.5 fold induction of GFP expression) | mES DsRed reporters [4]: Neg.
NC(N)=O [Urea] | Pos. | Neg. | Neg. | Neg. | 
O=[N+]([O-])c1ccc(O)cc1 [p-Nitrophenol] |  |  |  | Pos. (key: Pos.: considered positive when exposure to at least two different concentrations of a compound resulted in >1.5 fold induction of GFP expression) | mES DsRed reporters [4]: Neg.; Bscl2-GFP/Srxn1-GFP Prim. toxic properties [3]: Pro-oxidant
Nc1ccc(Cl)cc1 [p-chloroaniline] |  |  |  | Neg. | Ames test (Salmonella): Pos.; In vivo genotoxicity ([2]; in vivo): Pos.; mES DsRed reporters [4]: Neg.
Bleomycin | Pos. | Pos. |  | Pos. (considered positive when exposure to at least two different concentrations of a compound resulted in >1.5 fold induction of GFP expression) | In vivo genotoxicity [2, 5]: Pos.; Bscl2-GFP/Srxn1-GFP Prim. toxic properties [3, 6]: Genotoxin
n-butyl chloride |  |  |  |  | mES DsRed reporters [4]: Neg.
